From ChEMBL document CHEMBL1143167, “Monoaryl-substituted salicylaldoximes as ligands for estrogen receptor beta” (J Med Chem, 2008)

Tests used:
[1] = target: Estrogen receptor beta (Homo sapiens) (UniProt Q92731); experiment: Displacement of [3H]estradiol from purified full length human ERbeta receptor relative to estradiol
[2] = target: T1, Estrogen receptor (Homo sapiens) (UniProt P03372); experiment: Displacement of [3H]estradiol from purified full length human ERalpha receptor relative to estradiol
T1 sequence (whole entry): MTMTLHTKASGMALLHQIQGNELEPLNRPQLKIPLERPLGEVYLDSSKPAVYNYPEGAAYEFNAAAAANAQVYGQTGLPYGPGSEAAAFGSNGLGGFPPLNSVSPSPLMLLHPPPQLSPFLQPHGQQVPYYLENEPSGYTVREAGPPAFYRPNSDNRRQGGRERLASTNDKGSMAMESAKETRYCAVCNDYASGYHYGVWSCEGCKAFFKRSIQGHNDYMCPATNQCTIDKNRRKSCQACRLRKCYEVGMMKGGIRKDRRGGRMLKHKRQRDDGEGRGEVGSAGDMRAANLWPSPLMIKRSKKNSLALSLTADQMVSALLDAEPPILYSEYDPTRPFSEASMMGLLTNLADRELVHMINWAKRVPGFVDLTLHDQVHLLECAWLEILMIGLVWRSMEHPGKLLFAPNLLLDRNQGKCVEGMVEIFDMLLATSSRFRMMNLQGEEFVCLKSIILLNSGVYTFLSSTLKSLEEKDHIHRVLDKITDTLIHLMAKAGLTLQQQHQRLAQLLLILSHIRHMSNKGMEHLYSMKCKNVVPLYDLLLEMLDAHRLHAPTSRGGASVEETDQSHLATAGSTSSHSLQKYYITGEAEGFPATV

Homo sapiens = species: Homo sapiens; experiment: Selectivity ratio of human ERbeta receptor over human ERalpha receptor

Estrogen receptor beta (Homo sapiens), sequence (Q92731 whole entry): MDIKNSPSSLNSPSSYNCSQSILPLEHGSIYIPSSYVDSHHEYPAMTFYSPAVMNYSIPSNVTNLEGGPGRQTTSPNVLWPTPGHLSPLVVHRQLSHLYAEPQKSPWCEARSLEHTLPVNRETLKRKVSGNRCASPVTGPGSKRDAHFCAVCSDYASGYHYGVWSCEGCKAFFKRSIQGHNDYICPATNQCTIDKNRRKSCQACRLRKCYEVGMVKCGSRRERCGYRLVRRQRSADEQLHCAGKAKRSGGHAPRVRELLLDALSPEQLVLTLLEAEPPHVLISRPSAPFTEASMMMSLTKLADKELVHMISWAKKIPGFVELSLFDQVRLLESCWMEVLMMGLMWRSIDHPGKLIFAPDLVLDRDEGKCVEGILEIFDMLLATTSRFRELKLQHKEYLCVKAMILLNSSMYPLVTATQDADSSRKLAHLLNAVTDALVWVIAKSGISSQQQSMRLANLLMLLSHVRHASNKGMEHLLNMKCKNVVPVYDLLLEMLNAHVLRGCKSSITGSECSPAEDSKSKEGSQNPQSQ

Row | RBA [1] [%] | RBA [2] [%] | Ratio (Homo sapiens) | Structure (SMILES)
1 | < 0.004 | < 0.004 |  | O/N=C/c1ccc(-c2ccccc2)cc1O
2 | 0.007 | 0.005 |  | COc1ccc(-c2ccc(/C=N/O)c(O)c2C)cc1
3 | 0.078 | 0.004 | 20 | N#Cc1c(-c2ccc(O)cc2)ccc(/C=N/O)c1O
4 | 4.1 | 0.249 | 16 | Cc1c(-c2ccc(O)cc2)ccc(/C=N/O)c1O
5 | < 0.004 | 0.01 |  | COc1ccc(-c2ccc(/C=N/O)c(O)c2)cc1
6 | 0.553 | 0.007 | 79 | O/N=C/c1ccc(-c2ccc(O)cc2)cc1O
